{"source": "patent US20090217394A1", "about": "(priority 2005, published 2009)", "key": {"[1]": {"system": "SCID-Ins-TRECK-Tg mice", "test": "Decrease in blood glucose level by administration of insulin to DT-induced hyperglycemic mice", "format": "in vivo, mouse"}, "[2]": {"system": "SCID-Ins-TRECK-Tg mice", "test": "Blood glucose level after intraperitoneal diphtheria toxin in transgenic mice", "format": "in vivo, mouse"}, "[3]": {"system": "non-transgenic mouse born of the same mother", "test": "Blood glucose level after diphtheria toxin in non-transgenic littermate", "format": "in vivo"}, "[4]": {"system": "SCID-Ins-TRECK-Tg mouse", "test": "Blood insulin level after DT in transgenic mouse", "format": "in vivo", "description": "(§1) Moreover, the blood insulin level of an SCID-Ins-TRECK-Tg mouse was compared with that of a non-Tg mouse. When DT had not yet been administered, there had been no difference between them. […] However, the SCID-Ins-TRECK-Tg mouse was not able to secrete insulin, and thus the blood insulin level thereof was not changed (FIG. 5B) in it."}, "[5]": {"system": "non-Tg mouse", "test": "Blood insulin level after DT in non-Tg mouse", "format": "in vivo", "description": "as §1"}, "[6]": {"system": "islets of Langerhans in the pancreas of the transgenic mouse", "test": "Histological analysis of transgenic mouse pancreas after diphtheria toxin", "format": "in vivo"}, "[7]": {"system": "mouse", "conditions": "dosage of 50 μg/kg"}, "[8]": {"system": "mouse cells", "conditions": "toxin added from outside of the cells; cited from earlier work"}, "[9]": {"biological_target": "human HB-EGF (L148S/P149T) (human) (UniProt Q99075)", "sequence (Q99075 63-148 L148S)": "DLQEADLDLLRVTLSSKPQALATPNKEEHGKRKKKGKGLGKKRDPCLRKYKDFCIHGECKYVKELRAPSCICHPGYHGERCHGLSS", "test": "cell-based or functional assay"}, "[10]": {"conditions": "diphtheria toxin 50 ng/kg to 50 μg/kg intraperitoneal, within two days"}, "[11]": {"conditions": "5th day after administration of DT"}, "[12]": {"conditions": "after DT, 10 minutes after 2 g/kg oral glucose"}, "[13]": {"conditions": "7 days after 5 μg/kg diphtheria toxin, immunostaining"}}, "data": [{"substance": "NovoRapid injection: rapid-acting insulin analogue (NovoRapid injection; NovoNordisk Pharma)", "values": [{"measurement": "blood glucose level after insulin", "setting": "[1]; 1 U intraperitoneal, severe hyperglycemia (blood glucose >600 mg/dl)", "result": "decreased to a normal level"}, {"measurement": "blood glucose level after insulin", "setting": "[1]; 100 mU insulin, mouse at 500 mg/dl or higher after 1 μg/kg DT (FIG. 5A)", "result": "rapidly decreased to a normal value"}, {"measurement": "blood glucose level after insulin", "setting": "[1]; 100 mU intraperitoneal, 7 days after 1 μg/kg DT, mouse with blood glucose 500 mg/dl (FIG. 5C)", "result": "normalized"}, {"measurement": "blood glucose level after insulin", "setting": "[1]; 100 mU intraperitoneal, severe hyperglycemia (blood glucose >600 mg/dl)", "result": "no changes"}]}, {"substance": "diphtheria toxin", "values": [{"measurement": "time for which high blood glucose level was maintained", "setting": "[2]; diphtheria toxin 50 ng/kg to 20 μg/kg intraperitoneal", "result": "≥ 50", "unit": "days"}, {"measurement": "blood glucose level from four days after administration", "setting": "[2]; diphtheria toxin 50 ng/kg to 20 μg/kg intraperitoneal, from four days after administration", "result": "≥ 400", "unit": "mg/dL"}, {"measurement": "blood glucose level two days after administration", "setting": "[2]; diphtheria toxin 50 ng/kg to 20 μg/kg intraperitoneal, two days after administration", "result": "≥ 200", "unit": "mg/dL"}, {"measurement": "blood glucose level within two days after administration", "setting": "[2]; [10]", "result": "≥ 200", "unit": "mg/dL"}, {"measurement": "glucose and ketone bodies in urine", "setting": "[2]; [10]", "result": "detection of glucose and ketone bodies in urine"}, {"measurement": "duration of hyperglycemic state", "setting": "[2]; single DT administration, 5 ng/kg to 50 μg/kg intraperitoneal", "result": "≥ 2", "unit": "months"}, {"measurement": "minimum DT amount necessary for inducing hyperglycemia", "setting": "[2]; single intraperitoneal administration", "result": 50, "unit": "ng/kg"}, {"measurement": "changes in blood glucose levels due to administration of the toxin", "setting": "[3]", "result": "no changes"}, {"measurement": "blood insulin level", "setting": "[4]; [11]", "result": "significantly decreased"}, {"measurement": "blood insulin level after glucose load", "setting": "[4]; [12]", "result": "not changed"}, {"measurement": "blood insulin level", "setting": "[5]; [11]", "result": "not changed"}, {"measurement": "blood insulin level after glucose load", "setting": "[5]; [12]", "result": "rapidly increased"}, {"measurement": "insulin positive cells (β cells) in islets of Langerhans", "setting": "[6]; [13]", "result": "significantly decreased"}, {"measurement": "number of α cells stained with anti-glucagon antibodies", "setting": "[6]; [13]", "result": "increased"}, {"measurement": "cells in the islets of Langerhans (HE staining)", "setting": "[6]; 7 days after 40 μg/kg diphtheria toxin", "result": "damaged"}, {"measurement": "abnormality after administration", "setting": "[7]", "result": "no abnormality is observed"}, {"measurement": "resistance of mouse cells to diphtheria toxin relative to human cells", "setting": "[8]", "result": "≥ 1,000 times"}]}, {"substance": "diphtheria toxin (from UniProt P00588 33-567)", "values": [{"measurement": "minimum DT amount necessary for inducing hyperglycemia", "setting": "[9]", "result": 50, "unit": "ng/kg"}]}]}
